Results taken from publication PMC5218480 (PLoS ONE, 2017).

System: MV-4-11 cells
Experiment: Gene expression microarray analysis (Affymetrix PrimeView) and GSEA
Format: cell-based, human
Set-up: RFU PODN (11730768_x_at) / Fold change /veh PODN (11730768_x_at) / RFU LINC00158 (11744669_a_at) / Fold change /veh LINC00158 (11744669_a_at) / RFU DUSP10 (11751237_a_at) / Fold change /veh DUSP10 (11751237_a_at) / RFU ID3 (11757404_x_at) / Fold change /veh ID3 (11757404_x_at) / RFU PLEKHG5 (11737974_s_at) / Fold change /veh PLEKHG5 (11737974_s_at) / RFU LRRC4B (11730491_at) / Fold change /veh LRRC4B (11730491_at) / RFU GIMAP4 (11747438_a_at) / Fold change /veh GIMAP4 (11747438_a_at) / RFU KRT8 (11758183_x_at) / Fold change /veh KRT8 (11758183_x_at) / RFU CNN1 (11734310_a_at) / Fold change /veh CNN1 (11734310_a_at) / RFU VPS37D (11726825_at) / Fold change /veh VPS37D (11726825_at) / RFU C10orf10 (11716522_x_at) / Fold change /veh C10orf10 (11716522_x_at) / RFU KIR2DL2 /// KIR2DL4 /// KIR2DL5A /// KIR2DL5B /// KIR2DS1 /// KIR2DS2 /// KIR2DS3 /// KIR2DS4 /// KIR3DL3 /// KIR3DL3 /// KIR3DS1 (11738374_at) / Fold change /veh KIR2DL2 /// KIR2DL4 /// KIR2DL5A /// KIR2DL5B /// KIR2DS1 /// KIR2DS2 /// KIR2DS3 /// KIR2DS4 /// KIR3DL3 /// KIR3DL3 /// KIR3DS1 (11738374_at) / RFU C1QL1 (11718748_at) / Fold change /veh C1QL1 (11718748_at) / RFU TMPRSS4 (11747572_a_at) / Fold change /veh TMPRSS4 (11747572_a_at) / RFU HAMP (11756126_x_at) / Fold change /veh HAMP (11756126_x_at) / RFU RNFT2 (11725882_a_at) / Fold change /veh RNFT2 (11725882_a_at) / RFU NR4A2 (11747474_a_at) / Fold change /veh NR4A2 (11747474_a_at) / RFU ABCC12 (11746883_a_at) / Fold change /veh ABCC12 (11746883_a_at) / RFU TMEM136 (11760407_x_at) / Fold change /veh TMEM136 (11760407_x_at) / RFU CLDN22 /// WWC2 (11732394_at) / Fold change /veh CLDN22 /// WWC2 (11732394_at) / RFU HLA-DPB1 (11760878_x_at) / Fold change /veh HLA-DPB1 (11760878_x_at) / RFU SPINT1 (11716480_a_at) / Fold change /veh SPINT1 (11716480_a_at) / RFU GAP43 (11754022_s_at) / Fold change /veh GAP43 (11754022_s_at) / RFU A4GNT (11735810_at) / Fold change /veh A4GNT (11735810_at) / RFU PRB3 (11715151_x_at) / Fold change /veh PRB3 (11715151_x_at) / RFU TUBB4B (11761932_at) / Fold change /veh TUBB4B (11761932_at) / RFU CAPN14 (11732068_a_at) / Fold change /veh CAPN14 (11732068_a_at) / RFU TMCC2 (11721928_a_at) / Fold change /veh TMCC2 (11721928_a_at) / RFU IRGQ (11745062_a_at) / Fold change /veh IRGQ (11745062_a_at) / RFU FAM174B (11720279_a_at) / Fold change /veh FAM174B (11720279_a_at) / RFU TMPRSS4 (11748680_a_at) / Fold change /veh TMPRSS4 (11748680_a_at) / RFU FAM212B (11763350_a_at) / Fold change /veh FAM212B (11763350_a_at) / RFU PLEKHG5 (11743358_a_at) / Fold change /veh PLEKHG5 (11743358_a_at) / RFU ZSCAN30 (11745921_a_at) / Fold change /veh ZSCAN30 (11745921_a_at) / RFU CMKLR1 (11741424_a_at) / Fold change /veh CMKLR1 (11741424_a_at) / RFU LOC101060620 /// MAPK8IP1 (11723275_at) / Fold change /veh LOC101060620 /// MAPK8IP1 (11723275_at) / RFU SPTSSB (11747773_x_at) / Fold change /veh SPTSSB (11747773_x_at) / RFU PRSS12 (11739890_at) / Fold change /veh PRSS12 (11739890_at) / RFU BIN1 (11741810_x_at) / Fold change /veh BIN1 (11741810_x_at) / RFU WNT11 (11732464_a_at) / Fold change /veh WNT11 (11732464_a_at) / RFU C10orf10 (11716521_a_at) / Fold change /veh C10orf10 (11716521_a_at) / RFU C5orf56 (11738089_at) / Fold change /veh C5orf56 (11738089_at) / RFU CYB561 (11721691_x_at) / Fold change /veh CYB561 (11721691_x_at) / RFU ANKRD19P (11752326_a_at) / Fold change /veh ANKRD19P (11752326_a_at) / RFU OR2T12 /// OR2T33 /// OR2T8 (11738714_s_at) / Fold change /veh OR2T12 /// OR2T33 /// OR2T8 (11738714_s_at) / RFU VCAN (11748164_a_at) / Fold change /veh VCAN (11748164_a_at) / RFU JSRP1 (11732532_at) / Fold change /veh JSRP1 (11732532_at) / RFU KRTAP10-11 (11738290_x_at) / Fold change /veh KRTAP10-11 (11738290_x_at) / RFU MYO3A (11730013_a_at) / Fold change /veh MYO3A (11730013_a_at) / RFU EBF3 (11725865_a_at) / Fold change /veh EBF3 (11725865_a_at) / RFU CAMK2N1 (11719241_x_at) / Fold change /veh CAMK2N1 (11719241_x_at) / RFU C5orf56 (11738088_a_at) / Fold change /veh C5orf56 (11738088_a_at) / RFU OLFML3 (11715873_a_at) / Fold change /veh OLFML3 (11715873_a_at) / RFU LOC100653217 /// NTM (11731650_a_at) / Fold change /veh LOC100653217 /// NTM (11731650_a_at) / RFU MAPK11 (11762145_a_at) / Fold change /veh MAPK11 (11762145_a_at) / RFU FIZ1 (11724087_x_at) / Fold change /veh FIZ1 (11724087_x_at) / RFU OASL (11726364_x_at) / Fold change /veh OASL (11726364_x_at) / RFU SOX15 (11748057_x_at) / Fold change /veh SOX15 (11748057_x_at) / RFU CD79A (11719716_a_at) / Fold change /veh CD79A (11719716_a_at) / RFU HIST1H1D (11736915_at) / Fold change /veh HIST1H1D (11736915_at) / RFU CASKIN2 (11723855_a_at) / Fold change /veh CASKIN2 (11723855_a_at) / RFU LOC730098 (11760151_x_at) / Fold change /veh LOC730098 (11760151_x_at) / RFU OR4N2 (11742367_at) / Fold change /veh OR4N2 (11742367_at) / RFU PRRT2 (11749266_a_at) / Fold change /veh PRRT2 (11749266_a_at) / RFU SNX32 (11753110_a_at) / Fold change /veh SNX32 (11753110_a_at) / RFU CDHR5 (11726645_a_at) / Fold change /veh CDHR5 (11726645_a_at) / RFU RCAN1 (11760418_a_at) / Fold change /veh RCAN1 (11760418_a_at) / RFU FAM167A (11723789_a_at) / Fold change /veh FAM167A (11723789_a_at) / RFU FAM26E (11764081_at) / Fold change /veh FAM26E (11764081_at) / RFU ISYNA1 (11749810_s_at) / Fold change /veh ISYNA1 (11749810_s_at) / RFU ACY1 (11761880_at) / Fold change /veh ACY1 (11761880_at) / RFU 11764098_at / Fold change /veh 11764098_at / RFU SAMD14 (11745864_x_at) / Fold change /veh SAMD14 (11745864_x_at) / RFU NPB (11741838_a_at) / Fold change /veh NPB (11741838_a_at) / RFU TMPRSS6 (11731388_a_at) / Fold change /veh TMPRSS6 (11731388_a_at) / RFU KRTAP10-2 (11738614_at) / Fold change /veh KRTAP10-2 (11738614_at) / RFU ARHGAP8 /// PRR5-ARHGAP8 (11727945_x_at) / Fold change /veh ARHGAP8 /// PRR5-ARHGAP8 (11727945_x_at) / RFU KRTAP5-7 /// NADSYN1 (11734609_at) / Fold change /veh KRTAP5-7 /// NADSYN1 (11734609_at) / RFU RASL12 (11751679_a_at) / Fold change /veh RASL12 (11751679_a_at) / RFU CDKN2B (11736163_a_at) / Fold change /veh CDKN2B (11736163_a_at) / RFU PRF1 (11729649_at) / Fold change /veh PRF1 (11729649_at) / RFU, ZNF638 /// ZNF638-IT1 / Fold change vs veh, ZNF638 /// ZNF638-IT1 / RFU, PANK3 / Fold change vs veh, PANK3 / RFU, SH3YL1 / Fold change vs veh, SH3YL1 / RFU, ZEB2 / Fold change vs veh, ZEB2 / RFU, NRIP1 / Fold change vs veh, NRIP1 / RFU, PTTG1IP / Fold change vs veh, PTTG1IP / RFU, CAPN2 / Fold change vs veh, CAPN2 / RFU, MED14 / Fold change vs veh, MED14 / RFU, SNORA58 / Fold change vs veh, SNORA58 / RFU, C1orf63 / Fold change vs veh, C1orf63 / RFU, LRRFIP1 / Fold change vs veh, LRRFIP1 / RFU, NDUFAF7 / Fold change vs veh, NDUFAF7 / RFU, SLC12A2 / Fold change vs veh, SLC12A2 / RFU, IBTK / Fold change vs veh, IBTK / RFU, ESF1 / Fold change vs veh, ESF1 / Fold change vs veh, TMEM50B / RFU, TAOK1 / Fold change vs veh, TAOK1 / RFU, ACBD3 / Fold change vs veh, ACBD3 / RFU, TMA16 / Fold change vs veh, TMA16 / RFU, RWDD3 / Fold change vs veh, RWDD3 / RFU, BCAT1 / Fold change vs veh, BCAT1 / RFU, EDEM3 / Fold change vs veh, EDEM3 / RFU, TMEM33 / Fold change vs veh, TMEM33 / RFU, WDR75 / Fold change vs veh, WDR75 / RFU, AHCTF1 / Fold change vs veh, AHCTF1 / RFU, TFRC / Fold change vs veh, TFRC / RFU, ZDHHC17 / Fold change vs veh, ZDHHC17 / RFU, NOM1 / Fold change vs veh, NOM1 / RFU, ARL8B / Fold change vs veh, ARL8B / RFU, ZBTB11 / Fold change vs veh, ZBTB11 / RFU, TAMM41 / Fold change vs veh, TAMM41 / RFU, KIAA1704 /// LOC100996395 / Fold change vs veh, KIAA1704 /// LOC100996395 / RFU, ING1 / Fold change vs veh, ING1 / RFU, TRMT61B / Fold change vs veh, TRMT61B / RFU, FUBP3 / Fold change vs veh, FUBP3 / RFU, TP53 / Fold change vs veh, TP53 / RFU, TNKS2 / Fold change vs veh, TNKS2 / RFU, ZFP14 / Fold change vs veh, ZFP14 / RFU, ACTR2 / Fold change vs veh, ACTR2 / RFU, PPP3R1 / Fold change vs veh, PPP3R1 / RFU, PIK3R1 / Fold change vs veh, PIK3R1 / RFU, HNRNPA1 / Fold change vs veh, HNRNPA1 / RFU, RNF170 / Fold change vs veh, RNF170 / RFU, ZNF28 / Fold change vs veh, ZNF28 / RFU, RNGTT / Fold change vs veh, RNGTT / RFU, OGT / Fold change vs veh, OGT / RFU, BRD1 / Fold change vs veh, BRD1 / RFU, MARS / Fold change vs veh, MARS / RFU, ZNF655 / Fold change vs veh, ZNF655 / RFU, FAHD1 / Fold change vs veh, FAHD1 / RFU, BDP1 / Fold change vs veh, BDP1 / RFU, LRRCC1 / Fold change vs veh, LRRCC1 / RFU, ARID1A / Fold change vs veh, ARID1A / RFU, ZNF146 / Fold change vs veh, ZNF146 / RFU, ZNF330 / Fold change vs veh, ZNF330 / RFU, GPN3 / Fold change vs veh, GPN3 / RFU, C9orf123 / Fold change vs veh, C9orf123 / RFU, N4BP2L2 / Fold change vs veh, N4BP2L2 / RFU, ARFIP1 / Fold change vs veh, ARFIP1 / RFU, FAM179B / Fold change vs veh, FAM179B / RFU, BCL10 / Fold change vs veh, BCL10 / RFU, UHRF1BP1L / Fold change vs veh, UHRF1BP1L / RFU, BET1 / Fold change vs veh, BET1 / RFU, CNOT2 / Fold change vs veh, CNOT2 / RFU, ZNF268 / Fold change vs veh, ZNF268 / Fold change vs veh, ZNF507 / RFU, DGCR2 / Fold change vs veh, DGCR2 / RFU, WDSUB1 / Fold change vs veh, WDSUB1 / Fold change vs veh, HSP90B1 /// MIR3652 / RFU, ADSS / Fold change vs veh, ADSS / RFU, GK / Fold change vs veh, GK / RFU, ZNF148 / Fold change vs veh, ZNF148 / RFU, TAF9 / Fold change vs veh, TAF9 / RFU, SLC1A5 / Fold change vs veh, SLC1A5 / RFU, SLMO2 / Fold change vs veh, SLMO2 / RFU, ABCC4 / Fold change vs veh, ABCC4 / RFU, LOC101060439 /// RAP1B / Fold change vs veh, LOC101060439 /// RAP1B / RFU, RFX7 / Fold change vs veh, RFX7 / RFU, GTPBP10 / Fold change vs veh, GTPBP10 / RFU, CNEP1R1 / Fold change vs veh, CNEP1R1 / RFU, BIVM-ERCC5 /// ERCC5 / Fold change vs veh, BIVM-ERCC5 /// ERCC5 / RFU, ILF3 / Fold change vs veh, ILF3 / RFU 11762660_at / Fold change /veh 11762660_at / RFU VCAN (11757783_s_at) / Fold change /veh VCAN (11757783_s_at) / RFU DDX43 (11728927_at) / Fold change /veh DDX43 (11728927_at) / RFU KRT8 (11758188_x_at) / Fold change /veh KRT8 (11758188_x_at) / RFU NKD1 (11759106_at) / Fold change /veh NKD1 (11759106_at) / RFU SRD5A1 (11742802_a_at) / Fold change /veh SRD5A1 (11742802_a_at) / RFU TPSAB1 /// TPSB2 (11721975_s_at) / Fold change /veh TPSAB1 /// TPSB2 (11721975_s_at) / RFU GSTM3 (11746129_a_at) / Fold change /veh GSTM3 (11746129_a_at) / RFU IL23R (11737362_x_at) / Fold change /veh IL23R (11737362_x_at) / RFU TMEM51 (11727254_a_at) / Fold change /veh TMEM51 (11727254_a_at) / RFU PIWIL2 (11732686_x_at) / Fold change /veh PIWIL2 (11732686_x_at) / RFU ORM1 (11744905_x_at) / Fold change /veh ORM1 (11744905_x_at) / RFU CCDC152 (11743942_at) / Fold change /veh CCDC152 (11743942_at) / RFU ECM1 (11717891_a_at) / Fold change /veh ECM1 (11717891_a_at) / RFU IL23R (11748794_a_at) / Fold change /veh IL23R (11748794_a_at) / RFU TNFAIP8L3 (11732012_x_at) / Fold change /veh TNFAIP8L3 (11732012_x_at) / RFU MBOAT4 (11741988_at) / Fold change /veh MBOAT4 (11741988_at) / RFU 11764193_at / Fold change /veh 11764193_at / RFU TMEM53 (11763286_at) / Fold change /veh TMEM53 (11763286_at) / RFU MAGEB2 (11727129_at) / Fold change /veh MAGEB2 (11727129_at) / RFU TMEM200A (11744735_a_at) / Fold change /veh TMEM200A (11744735_a_at) / RFU CCDC152 (11751479_a_at) / Fold change /veh CCDC152 (11751479_a_at) / RFU FAM211A (11726209_a_at) / Fold change /veh FAM211A (11726209_a_at) / RFU RGS16 (11746705_a_at) / Fold change /veh RGS16 (11746705_a_at) / RFU VCAN (11755009_s_at) / Fold change /veh VCAN (11755009_s_at) / RFU RHOB (11743442_s_at) / Fold change /veh RHOB (11743442_s_at) / RFU RGS16 (11720943_a_at) / Fold change /veh RGS16 (11720943_a_at) / RFU RGS16 (11720944_at) / Fold change /veh RGS16 (11720944_at) / RFU, VPS4B / Fold change vs veh, VPS4B / RFU, CREB1 / Fold change vs veh, CREB1 / RFU, DNAJC13 / Fold change vs veh, DNAJC13 / RFU, GNAQ / Fold change vs veh, GNAQ / RFU, CDK5R1 / Fold change vs veh, CDK5R1 / RFU, ZRANB3 / Fold change vs veh, ZRANB3 / RFU, CUL4A / Fold change vs veh, CUL4A / RFU, CCNY / Fold change vs veh, CCNY / RFU, UFL1 / Fold change vs veh, UFL1 / RFU, COG3 / Fold change vs veh, COG3 / RFU, DIAPH2 / Fold change vs veh, DIAPH2 / RFU, SKA2 / Fold change vs veh, SKA2 / RFU, AFF3 / Fold change vs veh, AFF3 / RFU, LMF1 / Fold change vs veh, LMF1 / RFU, IPO11 / Fold change vs veh, IPO11 / RFU, DFFB / Fold change vs veh, DFFB / RFU, FOXP1 / Fold change vs veh, FOXP1 / RFU, CARD8 / Fold change vs veh, CARD8 / RFU, STRN3 / Fold change vs veh, STRN3 / RFU, ADK / Fold change vs veh, ADK / RFU, RASSF2 / Fold change vs veh, RASSF2 / RFU, WIPF1 / Fold change vs veh, WIPF1 / RFU, LARP1B / Fold change vs veh, LARP1B / RFU, RASA1 / Fold change vs veh, RASA1 / RFU, RB1 / Fold change vs veh, RB1 / RFU, PPFIA1 / Fold change vs veh, PPFIA1 / RFU, MAT2A / Fold change vs veh, MAT2A / RFU, CCT5 / Fold change vs veh, CCT5 / RFU, WDR92 / Fold change vs veh, WDR92 / RFU, CUX1 / Fold change vs veh, CUX1 / RFU, TTC7A / Fold change vs veh, TTC7A / RFU, TMEM135 / Fold change vs veh, TMEM135 / RFU, DEPTOR / Fold change vs veh, DEPTOR / RFU, CPM / Fold change vs veh, CPM / RFU, DNAJB6 / Fold change vs veh, DNAJB6 / RFU, CACNA2D3 / Fold change vs veh, CACNA2D3 / RFU, DTX4 / Fold change vs veh, DTX4 / RFU, TFCP2 / Fold change vs veh, TFCP2 / RFU, GMCL1 /// GMCL1P1 / Fold change vs veh, GMCL1 /// GMCL1P1 / RFU, AEBP2 / Fold change vs veh, AEBP2 / RFU, SNHG1 /// SNORD22 /// SNORD25 /// SNORD26 /// SNORD27 /// SNORD28 /// SNORD29 /// SNORD31 / Fold change vs veh, SNHG1 /// SNORD22 /// SNORD25 /// SNORD26 /// SNORD27 /// SNORD28 /// SNORD29 /// SNORD31 / Fold change (Aza/veh), C12orf56 (ProbeSet 11735607_a_at) / Fold change (ACY-1035/veh), C12orf56 (ProbeSet 11735607_a_at) / Fold change (Aza/veh), FGFR1OP (ProbeSet 11751329_s_at) / Fold change (ACY-1035/veh), FGFR1OP (ProbeSet 11751329_s_at) / Fold change (Aza/veh), VPS36 (ProbeSet 11739960_a_at) / Fold change (ACY-1035/veh), VPS36 (ProbeSet 11739960_a_at) / RFU SYPL1 (11715823_x_at) / Fold change /veh SYPL1 (11715823_x_at) / RFU IGFBP7 (11715501_s_at) / Fold change /veh IGFBP7 (11715501_s_at) / RFU REEP3 (11722064_at) / Fold change /veh REEP3 (11722064_at) / RFU IGLL1 (11728026_x_at) / Fold change /veh IGLL1 (11728026_x_at): dose or concentration left out as unconfirmed
Settings: ProbeSet 11720270_a_at; LIST B

Nc1ncn([C@@H]2O[C@H](CO)[C@@H](O)[C@H]2O)c(=O)n1 [azacitidine]
Fold change vs veh, IBTK: 0.96
